Measurements taken from US11174286B2, “Inhibitors of NF κ-B activity for treatment of diseases and disorders” (priority 2014, dated 2021).
Non-standard residues stand in square brackets, D forms with d. No end group written: not given here.

Legend:
[1] = test system: smad2; assay: Phospho-Smad2 sandwich ELISA in HepG2 cells; type: cell-based; settings: HepG2 cells (TBRII and TBRI present)
Protocol: TGF-β signaling requires both receptors.
(§1) Phosphorylation of smad2 was determined by Enzyme-Linked Immunosorbent Assay (ELISA) using a kit obtained from a commercial source. The Phospho-Smad2 Sandwich ELISA Kit is a solid phase sandwich enzyme-linked immunosorbent assay (ELISA) that recognizes endogenous levels of phospho-Smad2 (Ser465/467) and Smad3 (Ser423/425) proteins. A Smad2/3 Mouse Antibody has been coated on the microwells. After incubation with cell lysates, Smad2/3 proteins (phospho and nonphospho) are captured by the coated antibody. Following extensive washing, a Phospho-Smad2 (Ser465/467)/Smad3 (Ser423/425) Detection Antibody is added to detect captured phospho-Smad2 (Ser465/467) and phospho-Smad3 (Ser423/425) proteins. Anti-rabbit IgG, HRP-linked Antibody is then used to recognize the bound detection antibody. HRP substrate, TMB, is added to develop color. The magnitude of the absorbance for this developed color is proportional to the quantity of phospho-Smad2 (Ser465/467) and phospho-Smad3 (Ser423/425) proteins.

[2] = test system: smad2; assay: Phospho-Smad2 sandwich ELISA in MCF-7 cells (lack functional TBRII); type: cell-based; settings: for phosphorylation of smad2: MCF-7 cells (do not express TBRII)
Protocol: as §1

[3] = test system: oral cancer cell line AW 13516; assay: Cell cycle analysis by flow cytometry (propidium iodide); type: cell-based
Protocol: Cell cycle analysis was performed in oral cancer cell line AW 13516 after treatment with TGF-β alone, peptide alone or in combination. Cell cycle analysis was carried out using flow cytometry (Guava Technologies) using reagent kits provided by the instrument maker. The samples were prepared after propidium iodide staining and flow cytometric analysis was performed. TGF-β causes G1 arrest in cells as expected. The disclosed peptides in contrast markedly shortened the G1 phase and prolonged the S-phase, promoting a more faithful synthesis of DNA prior to cell division. Thus, the disclosed peptides have effects which differ from the effects of growth factors.

[4] = test system: chemically induced tumor in hamster cheek; assay: DMBA-induced oral tumor in hamster buccal pouch, topical peptide gel; type: in vivo, Syrian hamsters; settings: for histology of DMBA-treated tissue after peptide treatment: hamster cheek, FIG. 6C
Protocol: A peptide inhibitor of NF κB activity disclosed herein was tested for treatment of induced oral tumors. Male Syrian hamsters aged 8 to 10 weeks weighing between 100 and 110 g were used. The animals were fed a standard pellet diet and water ad libitum, and were maintained in accordance with applicable ethical and institutional guidelines. The animals were randomized into 10 groups of 8 animals each, and the right buccal pouches of hamsters in groups 1-5 were painted with 0.5% 7,12-dimethylbenz[a]anthracene (DMBA) in liquid paraffin three times a week for 12 weeks.
Mucoadhesive gels containing peptides were prepared by slowly adding Noveon AA1 (0.675% w/w) and Carbopol 971P NF (0.788% w/w) to purified water. The mixture was stirred at 1,025 rpm for one hour to allow full rehydration. Then 0.9% w/w glycerine, 2-phenoxyethanol, benzyl alcohol, and EDTA were added, followed by mixing at 875 rpm for one hour at room temperature. Finally, the desired peptide was added to the gel, and the gel mixed at 875 rpm for one hour to homogenize the gel (Kavitha et al., Biochimie 102:56-67 (2014); Mallery et al., Pharm Res. 24(4):728-737 (2007)).
Hamsters in Group 1 received no further treatment. For hamsters in Groups 2 and 3, peptide gel was applied topically to the right buccal pouches of the hamsters from the 12th to the 18th week daily at concentrations of 10 microgram/ml (2.35 microgram dosage of peptide per application) and 100 microgram/ml (23.5 microgram dosage of peptide per application) respectively. Another group of animals painted with liquid paraffin alone served as control. The experiment was terminated after 18 weeks and all animals were sacrificed by cervical dislocation after an overnight fast.

[5] = test system: human dermal fibroblasts; assay: Gene microarray analysis of gene expression; type: cell-based; settings: 1.0 micromolar peptide
Description: (§2) NF κB inhibitor peptide SEQ ID NO: 010 down-regulates expression of genes known to be associated with the pathobiological action of NF κB and TNF α. […] The upregulation of certain target genes by the transcription factor NF κB is a major contributory factor in diseases and disorders attributed to the activation of NF κB. The downregulation of these genes by the NF κB inhibitor peptides can be expected to provide prophylaxis and therapy for such disorders. (The downregulation of some of these genes was confirmed in vivo in a study to examine the efficacy of NF κB inhibitor peptide, SEQ ID NO: 010.) Certain genes were also tested in a rodent squamous cell carcinoma model, by PCR and by immunoblots (mRNA levels were monitored by PCR and the corresponding protein levels were monitored by immunoblots).

[6] = In vivo study confirming gene downregulation
Description: as §2

[7] = test system: p65 subunit of NF κB; assay: Western blot for p65 (NF κB) phosphorylation in SiHa cells; type: cell-based; settings: Western blot (FIG. 4)
[8] = test system: NF κB; assay: NF κB luciferase reporter assay (dual luciferase) in transfected SiHa cells; type: cell-based; settings: 24 hours of treatment
Protocol: SiHa cells (ATCC HTB-35) were seeded in the wells of a 96 well plate at 25,000 cells/well. The cells were transfected with the respective luciferase construct (p-SBE4, p-ARE-Luc in combination with FAST-1, p-NF κB) using Lipofectamine 2000 reagent (Invitrogen Technologies Inc.), as per the manufacturer's instructions. 18 hours post transfection; the cells were subjected to the respective treatments such as TGF-β, TNF-α, and the peptides. After 24 hours of treatment, the plates were removed from the incubator; medium from the cells was discarded. The wells were filled with 50 μl of PLB (passive lysis buffer) provided along with the Promega dual luciferase assay kit. The luciferase assay was performed as per the supplier's instruction manual, after transferring the lysates to a white plate for luminescence measurements. Expression of luciferase, and measurement of the resulting luminescence, thus provides a measurement of the extent of expression of NF-κB.
As per the data in FIG. 2, the disclosed peptides inhibit TNF-α-activation of NF-κB. As per the data in FIG. 3, the disclosed peptide LFAP[D]EA (SEQ ID NO:013) inhibits both TNF-α-induced and constitutive activation of NF-κB. The ratio between the firely/renilla luciferase was used to compare TNF-α induced activation of NF-κB over constitutive NF-κB activity.

[9] = test system: carrageenan-induced hyperalgesia in rat paw; assay: Carrageenan-induced hyperalgesia in rat paw (modified Randell-Selitto paw withdrawal method); type: in vivo, albino rats; settings: 3 mg carrageenan, 70 nanogram peptide
Protocol: To establish the efficacy of the disclosed peptide inhibitors of NF-κB activity in analgesia, hyperalgesia was induced in rat paws with injections of carrageenan. The experiment is as described in Example 5. Injection of carrageenan in a hind paw of rats produced severe hyperalgesia. […] Only the results with peptide SEQ ID NO:042 are shown here.
The ability of the disclosed peptides to affect nociception was determined using a modification of the Randell-Selitto paw withdrawal method. Groups (n=6) of healthy albino rats were injected in the paw with 3 mg carrageenan alone in phosphate buffered saline (PBS). […] As inflammation became obvious (15 min) in carrageenan-treated animals, test animals were injected with 70 nanogram of peptide SEQ ID NO:001, or peptide SEQ ID NO:042 in PBS. The animals are allowed to walk on a metal grid before and after injecting the drugs and the observations were noted. The scoring system was based on normal gait=1, marked limping=0.5, and three legged gait=0. The scores are transformed into percent analgesia and subjected to statistical analysis. The two peptides gave very similar results. The results shown in FIG. 10 are from animals treated with peptide SEQ ID NO:042.

[10] = test system: carrageenan-induced inflammation in rat paw; assay: Carrageenan-induced paw edema (plethysmometer); type: in vivo, albino rats
Description: INFLAMMATORY DISEASES AND FIBROTIC DISEASES: NF-κB is a prototypical proinflammatory signaling pathway, based on the activation of NF-κB by proinflammatory cytokines such as interleukin 1 (IL-1) and tumor necrosis factor a (TNF-α), and the subsequent role of NF-κB in the expression of other proinflammatory genes including cytokines, chemokines, and adhesion molecules. Inhibition of NF-κB can be expected to result in amelioration of inflammation. This was confirmed experimentally using peptide SEQ ID NO:042 in a standard model of carrageenan-induced inflammation in rat paw. This method measures acute inflammation induced by injection of carrageenan (Sakat et al., Inflammation 37(1):1-9 (2014)) and is used extensively to study antiinflammatory properties of drugs. Carrageenan is known to activate NF-κB (Bhattacharyya et al., Mediators of Inflammation, Vol. 2013, Article ID 397642; Bhattacharyya et al., American Journal of Physiology 301(3):G475-G486 (2011); Ellis et al., Ann. Rheum. Dis. 59:303-307 (2000); Pierce et al., J. Biol. Chem. 272:21096-21103 (1997)). Example 6 and FIG. 11 show the high efficacy of peptide SEQ ID NO:042 in alleviating edema and inflammation. […] Treatment of inflammation requires the subsidence of TNF-α and NF-κB pathways, which are part of the action of the disclosed peptides.
Groups (n=6) of healthy albino rats were injected in the paw with 3 mg carrageenan alone in phosphate buffered saline (PBS). […] As inflammation became obvious (15 min) in carrageenan-treated animals, test animals were injected with 70 nanogram of peptide SEQ ID NO:001, or peptide SEQ ID NO:042 in PBS. A plethysmometer was used to measure paw edema at 0, 0.5, 1.0, 2.0, 3.0, 6.0, 12.0, and 24 hours after injections. […] In contrast, animals not receiving peptide continued to show significant inflammation at all time points.

| Compound | % CELLS IN G1 Phase [3] [%] | % CELLS IN Go Phase [3] [%] | % CELLS IN M Phase [3] [%] | % CELLS IN S Phase [3] [%] | also measured |
| --- | --- | --- | --- | --- | --- |
| LIANAK [SEQ ID NO:060] | – | – | – | – | phosphorylation of smad2 [1]: induce phosphorylation; phosphorylation of smad2 [2]: causing the phosphorylation of smad2 |
| LIAP[D]EA (LIAP[dE]A) [SEQ ID NO:014] | 62.69 | 3.19 | 13.52 | 19.78 | – |
| NC(=O)c1ccc(-c2nc(-c3ccc4c(c3)OCO4)c(-c3ccccn3)[nH]2)cc1 [SB431542, 4-[4-(1,3-benzodioxol-5-yl)-5-(2-pyridinyl)-1H-imidazol-2-yl]benzamide, reference compound] | – | – | – | – | effect on peptide-induced smad2 phosphorylation ([2]; MCF-7 cells, with peptide LIANAK): did not prevent smad2 phosphorylation |
| TGF-β | 79.83 | 8.32 | 8.23 | 3.62 | phosphorylation of smad2 [1]: induce phosphorylation; phosphorylation of smad2 [2]: do not respond |
| NVAENA [SEQ ID NO:010] | – | – | – | – | histology of DMBA-treated tissue after peptide treatment [4]: histology is closer to normal histology after treatment; expression of genes associated with the pathobiological action of NF κB and TNF α [5]: down-regulates; downregulation of some of these genes in vivo [6]: confirmed |
| TWAPES [SEQ ID NO:016] | – | – | – | – | inhibition of phosphorylation of the p65 subunit of NF κB [7]: inhibition of phosphorylation |
| TWSPEL [SEQ ID NO:017] | – | – | – | – | inhibition of phosphorylation of the p65 subunit of NF κB [7]: inhibition of phosphorylation |
| SEQ ID NO:057: peptide of FIG. 8B (SEQ ID NOS:041 through 069), disclosed in U.S. Pat. Nos. 5,661,127, 5,780,436 and 6,638,912; sequence not printed (LIAGEG) | 52.59 | 14.59 | 11.18 | 21.63 | – |
| LIAPEA [SEQ ID NO:061] | 60.05 | 2.33 | 18.59 | 19.03 | – |
| LFAP[D]EA (LFAP[dE]A) [SEQ ID NO:013] | 62.05 | 2.87 | 14.86 | 20.21 | inhibition of constitutive activation of NF-κB ([8]; Renilla luciferase): inhibits; inhibition of TNF-α-induced activation of NF-κB ([8]; firefly luciferase): inhibits |
| ANVAENA [SEQ ID NO:042] | 62.73 | 2.02 | 19.10 | 16.14 | histology of DMBA-treated tissue after peptide treatment [4]: an effect at the microscopic level; tumor growth in hamster cheek ([4]; topical, six weeks, 100 microgram/ml (23.5 microgram per application), after DMBA): marked inhibition of tumor growth; nociception (hyperalgesia) [9]: markedly ameliorated nociception; anti-inflammatory efficacy relative to that reported for celecoxib ([10]; compared with literature value for celecoxib): approximately 103 times; edema and inflammation at 2 h ([10]; rat paw, 3 mg carrageenan, 70 nanogram peptide, 2 h): significant decrease in edema and inflammation; inflammation by 3.0 h ([10]; rat paw, 3 mg carrageenan, 70 nanogram peptide, 3.0 h): subsided almost completely; inflammation up to 24 h post injection ([10]; rat paw, 3 mg carrageenan, 70 nanogram peptide, up to 24 h): no inflammation was noted |
| YMAPEV [SEQ ID NO:001] | – | – | – | – | nociception (hyperalgesia) [9]: markedly ameliorated nociception; paw edema pattern compared with peptide SEQ ID NO:042 ([10]; rat paw, 70 nanogram peptide, 0 to 24 hours): nearly identical patterns |
| TNWAEN [SEQ ID NO:015] | – | – | – | – | inhibition of phosphorylation of the p65 subunit of NF κB [7]: inhibition of phosphorylation |
| LWAEAK [SEQ ID NO:008] | – | – | – | – | inhibition of phosphorylation of the p65 subunit of NF κB [7]: inhibition of phosphorylation |
